Measured values published in the NIST ThermoML archive (doi:10.1016/j.jct.2015.08.021).

Legend:
[1] = refractive index (Na D-line) (dimensionless); xn = mol fraction of the nth substance listed; conditions: 101.3 kPa, Liquid, Standard Abbe refractometry
[2] = relative permittivity at various frequencies (dimensionless); xn = mol fraction of the nth substance listed; conditions: 101.3 kPa, Liquid, Frequency=0.1 MHz, Coaxial cylinder capacitor
[3] = 298.15 K; 101.33 kPa; Liquid; Vibrating tube method
[4] = refractive index (Na D-line) (dimensionless); conditions: 101.3 kPa, Liquid, Standard Abbe refractometry
[5] = relative permittivity at various frequencies (dimensionless); conditions: 101.3 kPa, Liquid, Frequency=0.1 MHz, Coaxial cylinder capacitor

C1COCCO1 [1,4-dioxane] + CC(C)CCO
x2 = 0
Conditions | refractive index, 298.15 K | refractive index, 308.15 K | refractive index, 318.15 K | relative permittivity, 298.15 K | relative permittivity, 308.15 K | relative permittivity, 318.15 K
[1] | 1.4202 | 1.4144 | 1.4086 | – | – | –
[2] | – | – | – | 2.229 | 2.209 | 2.187

CC(C)CCO [3-methylbutan-1-ol] + OCCCCO
x2 = 0
Conditions | refractive index, 298.15 K | refractive index, 308.15 K | refractive index, 318.15 K | relative permittivity, 298.15 K | relative permittivity, 308.15 K | relative permittivity, 318.15 K
[1] | 1.4048 | 1.4011 | 1.3973 | – | – | –
[2] | – | – | – | 14.93 | 13.402 | 12.051

CCCCCO [pentan-1-ol] + C1COCCO1
x1 = 1
Conditions | refractive index, 298.15 K | refractive index, 308.15 K | refractive index, 318.15 K | relative permittivity, 298.15 K | relative permittivity, 308.15 K | relative permittivity, 318.15 K
[1] | 1.4082 | 1.4041 | 1.4001 | – | – | –
[2] | – | – | – | 15.11 | 13.72 | 12.391

C1COCCO1 [1,4-dioxane]
Conditions | mass density [kg/m3]
[3] | 1027.86

Conditions | refractive index, 298.15 K | refractive index, 308.15 K | refractive index, 318.15 K | relative permittivity, 298.15 K | relative permittivity, 308.15 K | relative permittivity, 318.15 K
[4] | 1.4202 | 1.4144 | 1.4086 | – | – | –
[5] | – | – | – | 2.229 | 2.209 | 2.187

CCCCCO [pentan-1-ol] + OCCCCO
x2 = 0
Conditions | refractive index, 298.15 K | refractive index, 308.15 K | refractive index, 318.15 K | relative permittivity, 298.15 K | relative permittivity, 308.15 K | relative permittivity, 318.15 K
[1] | 1.4082 | 1.4041 | 1.4001 | – | – | –
[2] | – | – | – | 15.11 | 13.72 | 12.391

CCCCCO [pentan-1-ol]
Conditions | mass density [kg/m3]
[3] | 811.1

Conditions | refractive index, 298.15 K | refractive index, 308.15 K | refractive index, 318.15 K | relative permittivity, 298.15 K | relative permittivity, 308.15 K | relative permittivity, 318.15 K
[4] | 1.4082 | 1.4041 | 1.4001 | – | – | –
[5] | – | – | – | 15.11 | 13.72 | 12.391

OCCCCO [1,4-butanediol]
Conditions | mass density [kg/m3]
[3] | 1013.4

Conditions | refractive index, 298.15 K | refractive index, 308.15 K | refractive index, 318.15 K | relative permittivity, 298.15 K | relative permittivity, 308.15 K | relative permittivity, 318.15 K
[4] | 1.4445 | 1.4417 | 1.4393 | – | – | –
[5] | – | – | – | 31.587 | 29.482 | 27.203

OCCCCO [1,4-butanediol] + CC(C)CCO
Conditions | refractive index, 298.15 K | refractive index, 308.15 K | refractive index, 318.15 K | relative permittivity, 298.15 K | relative permittivity, 308.15 K | relative permittivity, 318.15 K
[1], x1 = 0.101 | 1.4088 | 1.4052 | 1.4014 | – | – | –
[1], x1 = 0.2 | 1.4123 | 1.4087 | 1.4055 | – | – | –
[1], x1 = 0.299 | 1.4165 | 1.4122 | 1.4093 | – | – | –
[1], x1 = 0.4 | 1.4203 | 1.4166 | 1.4137 | – | – | –
[1], x1 = 0.5 | 1.4244 | 1.4207 | 1.4175 | – | – | –
[1], x1 = 0.6 | 1.4291 | 1.4252 | 1.4222 | – | – | –
[1], x1 = 0.699 | 1.4325 | 1.4295 | 1.426 | – | – | –
[1], x1 = 0.801 | 1.4372 | 1.4336 | 1.4309 | – | – | –
[1], x1 = 0.9 | 1.4409 | 1.4376 | 1.4353 | – | – | –
[1], x1 = 1 | 1.4445 | 1.4417 | 1.4393 | – | – | –
[2], x1 = 0.101 | – | – | – | 15.856 | 14.411 | 13.099
[2], x1 = 0.2 | – | – | – | 16.963 | 15.522 | 14.197
[2], x1 = 0.299 | – | – | – | 18.26 | 16.765 | 15.4
[2], x1 = 0.4 | – | – | – | 19.772 | 18.22 | 16.76
[2], x1 = 0.5 | – | – | – | 21.409 | 19.78 | 18.225
[2], x1 = 0.6 | – | – | – | 23.176 | 21.499 | 19.794
[2], x1 = 0.699 | – | – | – | 25.066 | 23.351 | 21.52
[2], x1 = 0.801 | – | – | – | 27.119 | 25.335 | 23.403
[2], x1 = 0.9 | – | – | – | 29.28 | 27.371 | 25.287
[2], x1 = 1 | – | – | – | 31.587 | 29.482 | 27.203

CC(C)CCO [3-methylbutan-1-ol] + C1COCCO1
Conditions | refractive index, 298.15 K | refractive index, 308.15 K | refractive index, 318.15 K | relative permittivity, 298.15 K | relative permittivity, 308.15 K | relative permittivity, 318.15 K
[1], x1 = 0.1 | 1.4177 | 1.4125 | 1.4069 | – | – | –
[1], x1 = 0.203 | 1.4151 | 1.4105 | 1.4054 | – | – | –
[1], x1 = 0.301 | 1.4133 | 1.4088 | 1.4039 | – | – | –
[1], x1 = 0.4 | 1.4114 | 1.4072 | 1.4026 | – | – | –
[1], x1 = 0.5 | 1.4098 | 1.4057 | 1.4012 | – | – | –
[1], x1 = 0.601 | 1.4084 | 1.4045 | 1.4001 | – | – | –
[1], x1 = 0.699 | 1.4072 | 1.4034 | 1.3992 | – | – | –
[1], x1 = 0.8 | 1.4063 | 1.4023 | 1.3984 | – | – | –
[1], x1 = 0.899 | 1.4054 | 1.4013 | 1.3978 | – | – | –
[1], x1 = 1 | 1.4048 | 1.4011 | 1.3973 | – | – | –
[2], x1 = 0.1 | – | – | – | 2.694 | 2.634 | 2.57
[2], x1 = 0.203 | – | – | – | 3.292 | 3.168 | 3.055
[2], x1 = 0.301 | – | – | – | 4.014 | 3.804 | 3.632
[2], x1 = 0.4 | – | – | – | 4.91 | 4.629 | 4.376
[2], x1 = 0.5 | – | – | – | 6.024 | 5.611 | 5.239
[2], x1 = 0.601 | – | – | – | 7.327 | 6.743 | 6.232
[2], x1 = 0.699 | – | – | – | 8.82 | 8.037 | 7.343
[2], x1 = 0.8 | – | – | – | 10.64 | 9.655 | 8.702
[2], x1 = 0.899 | – | – | – | 12.649 | 11.434 | 10.315
[2], x1 = 1 | – | – | – | 14.93 | 13.402 | 12.051
